Laboratory results: ChEMBL document CHEMBL1125726 (J Med Chem, 1991)

How the values were obtained:
D(2) dopamine receptor = D(2) dopamine receptor (Rattus norvegicus, UniProt P61169); test: biochemical
Description: Compound was evaluated for its ability to inhibit dopamine receptor D2 in rat striatum using [3H]-spiperone

D(1A) dopamine receptor = D(1A) dopamine receptor (Rattus norvegicus, UniProt P18901); test: biochemical
D(1A) dopamine receptor, sequence (P18901 whole entry): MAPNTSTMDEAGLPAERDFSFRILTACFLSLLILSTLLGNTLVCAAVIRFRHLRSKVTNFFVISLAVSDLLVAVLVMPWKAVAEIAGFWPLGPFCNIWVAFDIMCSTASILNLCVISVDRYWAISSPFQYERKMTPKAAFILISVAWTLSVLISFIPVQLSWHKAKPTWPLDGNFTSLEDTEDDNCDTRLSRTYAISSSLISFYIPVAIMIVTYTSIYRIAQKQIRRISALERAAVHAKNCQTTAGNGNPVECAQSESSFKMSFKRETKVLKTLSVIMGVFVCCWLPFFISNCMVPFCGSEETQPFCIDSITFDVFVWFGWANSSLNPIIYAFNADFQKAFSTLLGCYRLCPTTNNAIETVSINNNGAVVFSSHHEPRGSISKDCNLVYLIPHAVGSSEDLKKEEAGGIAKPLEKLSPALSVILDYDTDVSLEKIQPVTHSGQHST
Description: Compound was evaluated for its ability to inhibit dopamine receptor D1 in rat striatum using [3H]SCH-23390

D(2) dopamine receptor, sequence (P61169 whole entry): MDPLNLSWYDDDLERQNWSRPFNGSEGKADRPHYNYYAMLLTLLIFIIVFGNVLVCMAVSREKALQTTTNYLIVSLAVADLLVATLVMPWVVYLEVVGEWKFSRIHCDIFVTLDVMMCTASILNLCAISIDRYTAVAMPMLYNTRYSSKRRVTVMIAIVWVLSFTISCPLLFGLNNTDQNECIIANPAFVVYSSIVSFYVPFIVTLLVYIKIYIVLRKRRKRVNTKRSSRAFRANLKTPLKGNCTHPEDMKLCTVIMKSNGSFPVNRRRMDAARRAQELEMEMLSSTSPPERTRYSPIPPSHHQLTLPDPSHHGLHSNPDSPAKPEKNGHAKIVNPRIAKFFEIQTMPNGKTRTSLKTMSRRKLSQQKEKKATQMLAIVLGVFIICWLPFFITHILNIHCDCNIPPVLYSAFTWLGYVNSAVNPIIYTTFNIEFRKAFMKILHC

| Compound | Ki (Dopamine receptor) | Ki (D(2) dopamine receptor) | Ki (D(1A) dopamine receptor) |
| --- | --- | --- | --- |
| C=CCN1CCc2cccc3c2[C@@H]1Cc1cccc(O)c1-3 | 1595 nM | 155 nM | > 10000 nM |
| C=CCN1CCc2cccc3c2[C@H]1Cc1cccc(O)c1-3 | 0.034 nM | 2 nM | 452 nM |
